According to ChEMBL document CHEMBL3351502, “Flavones: an important scaffold for medicinal chemistry” (Eur J Med Chem, 2014):
In brackets after ≈: the same amount, converted by molar mass.

Tests used:
Adenosine receptor A3 = biological target: T1, Adenosine receptor A3 (Homo sapiens, UniProt P0DMS8); assay: Binding affinity to human adenosine A3 receptor
T1 sequence (P0DMS8 whole entry): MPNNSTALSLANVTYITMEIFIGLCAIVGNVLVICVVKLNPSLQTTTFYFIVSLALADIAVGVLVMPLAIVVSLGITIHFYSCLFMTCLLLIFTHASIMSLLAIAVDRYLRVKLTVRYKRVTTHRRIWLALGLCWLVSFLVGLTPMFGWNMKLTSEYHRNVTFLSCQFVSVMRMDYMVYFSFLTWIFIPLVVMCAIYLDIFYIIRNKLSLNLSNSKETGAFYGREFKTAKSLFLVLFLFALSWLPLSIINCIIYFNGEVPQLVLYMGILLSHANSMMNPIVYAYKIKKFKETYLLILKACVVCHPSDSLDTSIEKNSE

Homo sapiens = species: Homo sapiens; assay: Inhibition of alpha glucosidase (unknown origin) at 0.5 mg/ml
[1] = biological target: Xanthine dehydrogenase/oxidase (Homo sapiens, UniProt P47989); assay: Inhibition of xanthine oxidase (unknown origin)
[2] = Inhibition of advanced glycation end product formation; type: physicochemical
LNCaP = assay: Downregulation of prostate specific antigen secretion in human LNCAP cells; type: functional, cell-based
[3] = biological target: Benzodiazepine receptors; peripheral & central; assay: Binding affinity to benzodiazepine receptor (unknown origin); type: protein assay, Homo sapiens
[4] = biological target: Telomerase reverse transcriptase (Homo sapiens, UniProt O14746); assay: Inhibition of telomerase activity (unknown origin)
Acetylcholinesterase = Acetylcholinesterase (Homo sapiens, UniProt P22303); assay: Inhibition of AChE (unknown origin)
Plasmodium falciparum = assay: Antimicrobial activity against Plasmodium falciparum; type: functional, organism-based
Leishmania = assay: Leishmanicidal activity against Leishmania; type: functional, organism-based
[5] = biological target: T2, Cystic fibrosis transmembrane conductance regulator (Homo sapiens, UniProt P13569); assay: Inhibition of forskolin-stimulated CFTR (unknown origin)
[6] = biological target: T2, Cystic fibrosis transmembrane conductance regulator; assay: Stimulation of CFTR (unknown origin)
[7] = biological target: 4-aminobutyrate aminotransferase, mitochondrial (Homo sapiens, UniProt P80404); assay: Inhibition of GABA transaminase (unknown origin)
[8] = Inhibition of alpha glucosidase (unknown origin); design: species or system Homo sapiens
[9] = biological target: T3, Succinate-semialdehyde dehydrogenase, mitochondrial (Homo sapiens, UniProt P51649); assay: Inhibition of SSADH (unknown origin)
T3 sequence (P51649 whole entry): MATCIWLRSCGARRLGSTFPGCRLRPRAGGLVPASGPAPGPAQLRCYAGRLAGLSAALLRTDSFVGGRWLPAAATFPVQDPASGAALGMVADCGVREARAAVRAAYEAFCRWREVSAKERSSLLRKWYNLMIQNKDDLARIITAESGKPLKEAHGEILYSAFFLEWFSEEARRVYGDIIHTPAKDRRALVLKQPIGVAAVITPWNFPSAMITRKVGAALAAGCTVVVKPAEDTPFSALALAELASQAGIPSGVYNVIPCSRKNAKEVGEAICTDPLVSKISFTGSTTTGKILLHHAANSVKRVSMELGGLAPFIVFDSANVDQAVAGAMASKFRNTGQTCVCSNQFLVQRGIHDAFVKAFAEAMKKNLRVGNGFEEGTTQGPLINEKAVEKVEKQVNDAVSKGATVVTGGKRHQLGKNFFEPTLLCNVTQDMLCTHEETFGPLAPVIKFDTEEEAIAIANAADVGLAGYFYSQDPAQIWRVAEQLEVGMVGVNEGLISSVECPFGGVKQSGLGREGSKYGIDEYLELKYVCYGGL

[10] = biological target: T4, Human immunodeficiency virus type 1 integrase (Human immunodeficiency virus 1, UniProt Q7ZJM1); assay: Inhibition of HIV-1 integrase strand transfer activity
[11] = biological target: T4, Human immunodeficiency virus type 1 integrase; assay: Inhibition of HIV-1 integrase terminal cleavage activity
Staphylococcus aureus = assay: Antimicrobial activity against Staphylococcus aureus; type: functional
Rattus norvegicus = species: Rattus norvegicus; assay: Antiulcer activity in rat assessed as protection from indomethacin-induced gastric damage; type: functional; conditions: Stomach
[12] = Competitive inhibition of muscarinic receptor (unknown origin); design: species or system Homo sapiens

Sequence of Xanthine dehydrogenase/oxidase (P47989 whole entry): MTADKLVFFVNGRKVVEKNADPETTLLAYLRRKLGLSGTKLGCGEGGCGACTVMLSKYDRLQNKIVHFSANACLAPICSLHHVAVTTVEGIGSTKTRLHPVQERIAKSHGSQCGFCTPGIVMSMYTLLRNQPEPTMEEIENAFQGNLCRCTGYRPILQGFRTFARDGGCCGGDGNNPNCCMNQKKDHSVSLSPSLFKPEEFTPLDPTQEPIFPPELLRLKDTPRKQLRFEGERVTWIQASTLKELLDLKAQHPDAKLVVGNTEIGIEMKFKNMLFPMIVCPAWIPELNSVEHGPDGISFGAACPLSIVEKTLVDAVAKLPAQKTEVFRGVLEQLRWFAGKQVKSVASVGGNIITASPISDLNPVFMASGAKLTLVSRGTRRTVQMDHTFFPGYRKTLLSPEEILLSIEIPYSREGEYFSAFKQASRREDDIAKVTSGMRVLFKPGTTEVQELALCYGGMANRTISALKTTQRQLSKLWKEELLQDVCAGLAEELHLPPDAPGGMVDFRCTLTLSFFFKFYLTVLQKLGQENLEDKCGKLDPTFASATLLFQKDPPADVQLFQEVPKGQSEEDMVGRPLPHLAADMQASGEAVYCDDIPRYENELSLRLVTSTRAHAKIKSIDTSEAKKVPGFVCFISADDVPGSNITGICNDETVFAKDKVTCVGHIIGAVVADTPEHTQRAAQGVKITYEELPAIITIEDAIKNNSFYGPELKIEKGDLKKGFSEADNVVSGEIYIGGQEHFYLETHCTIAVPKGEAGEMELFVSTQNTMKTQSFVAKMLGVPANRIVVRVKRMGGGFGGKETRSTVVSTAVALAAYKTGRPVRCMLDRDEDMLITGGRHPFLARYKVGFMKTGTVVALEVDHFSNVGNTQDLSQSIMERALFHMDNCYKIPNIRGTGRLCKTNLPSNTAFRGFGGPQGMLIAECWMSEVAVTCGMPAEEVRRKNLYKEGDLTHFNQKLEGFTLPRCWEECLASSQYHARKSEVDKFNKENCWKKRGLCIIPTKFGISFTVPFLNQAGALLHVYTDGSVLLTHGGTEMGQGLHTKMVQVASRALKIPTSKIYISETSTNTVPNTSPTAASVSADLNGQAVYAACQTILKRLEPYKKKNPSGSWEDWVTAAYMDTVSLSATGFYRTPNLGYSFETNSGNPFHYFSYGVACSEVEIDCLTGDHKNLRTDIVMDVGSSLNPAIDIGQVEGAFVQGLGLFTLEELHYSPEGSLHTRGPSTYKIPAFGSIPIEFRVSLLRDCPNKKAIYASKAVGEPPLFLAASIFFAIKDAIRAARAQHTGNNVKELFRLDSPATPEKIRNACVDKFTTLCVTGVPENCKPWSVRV
Sequence of Acetylcholinesterase (P22303 whole entry): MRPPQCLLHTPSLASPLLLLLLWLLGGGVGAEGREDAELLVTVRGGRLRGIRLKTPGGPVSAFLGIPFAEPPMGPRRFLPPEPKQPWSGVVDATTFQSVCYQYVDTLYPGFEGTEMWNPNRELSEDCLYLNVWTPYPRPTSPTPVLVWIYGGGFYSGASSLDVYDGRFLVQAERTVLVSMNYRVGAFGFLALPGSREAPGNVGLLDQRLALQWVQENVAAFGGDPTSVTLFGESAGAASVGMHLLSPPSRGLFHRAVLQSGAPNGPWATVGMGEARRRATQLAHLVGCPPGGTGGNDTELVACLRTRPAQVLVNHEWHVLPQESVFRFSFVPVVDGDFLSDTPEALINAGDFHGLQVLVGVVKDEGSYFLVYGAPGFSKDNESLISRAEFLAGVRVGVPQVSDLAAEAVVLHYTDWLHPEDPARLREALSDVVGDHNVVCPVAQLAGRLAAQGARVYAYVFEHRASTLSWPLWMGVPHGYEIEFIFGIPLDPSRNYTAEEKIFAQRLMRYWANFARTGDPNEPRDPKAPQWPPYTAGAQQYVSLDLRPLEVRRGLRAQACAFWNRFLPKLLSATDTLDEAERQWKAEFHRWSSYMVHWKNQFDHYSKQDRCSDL
T2 sequence (P13569 whole entry): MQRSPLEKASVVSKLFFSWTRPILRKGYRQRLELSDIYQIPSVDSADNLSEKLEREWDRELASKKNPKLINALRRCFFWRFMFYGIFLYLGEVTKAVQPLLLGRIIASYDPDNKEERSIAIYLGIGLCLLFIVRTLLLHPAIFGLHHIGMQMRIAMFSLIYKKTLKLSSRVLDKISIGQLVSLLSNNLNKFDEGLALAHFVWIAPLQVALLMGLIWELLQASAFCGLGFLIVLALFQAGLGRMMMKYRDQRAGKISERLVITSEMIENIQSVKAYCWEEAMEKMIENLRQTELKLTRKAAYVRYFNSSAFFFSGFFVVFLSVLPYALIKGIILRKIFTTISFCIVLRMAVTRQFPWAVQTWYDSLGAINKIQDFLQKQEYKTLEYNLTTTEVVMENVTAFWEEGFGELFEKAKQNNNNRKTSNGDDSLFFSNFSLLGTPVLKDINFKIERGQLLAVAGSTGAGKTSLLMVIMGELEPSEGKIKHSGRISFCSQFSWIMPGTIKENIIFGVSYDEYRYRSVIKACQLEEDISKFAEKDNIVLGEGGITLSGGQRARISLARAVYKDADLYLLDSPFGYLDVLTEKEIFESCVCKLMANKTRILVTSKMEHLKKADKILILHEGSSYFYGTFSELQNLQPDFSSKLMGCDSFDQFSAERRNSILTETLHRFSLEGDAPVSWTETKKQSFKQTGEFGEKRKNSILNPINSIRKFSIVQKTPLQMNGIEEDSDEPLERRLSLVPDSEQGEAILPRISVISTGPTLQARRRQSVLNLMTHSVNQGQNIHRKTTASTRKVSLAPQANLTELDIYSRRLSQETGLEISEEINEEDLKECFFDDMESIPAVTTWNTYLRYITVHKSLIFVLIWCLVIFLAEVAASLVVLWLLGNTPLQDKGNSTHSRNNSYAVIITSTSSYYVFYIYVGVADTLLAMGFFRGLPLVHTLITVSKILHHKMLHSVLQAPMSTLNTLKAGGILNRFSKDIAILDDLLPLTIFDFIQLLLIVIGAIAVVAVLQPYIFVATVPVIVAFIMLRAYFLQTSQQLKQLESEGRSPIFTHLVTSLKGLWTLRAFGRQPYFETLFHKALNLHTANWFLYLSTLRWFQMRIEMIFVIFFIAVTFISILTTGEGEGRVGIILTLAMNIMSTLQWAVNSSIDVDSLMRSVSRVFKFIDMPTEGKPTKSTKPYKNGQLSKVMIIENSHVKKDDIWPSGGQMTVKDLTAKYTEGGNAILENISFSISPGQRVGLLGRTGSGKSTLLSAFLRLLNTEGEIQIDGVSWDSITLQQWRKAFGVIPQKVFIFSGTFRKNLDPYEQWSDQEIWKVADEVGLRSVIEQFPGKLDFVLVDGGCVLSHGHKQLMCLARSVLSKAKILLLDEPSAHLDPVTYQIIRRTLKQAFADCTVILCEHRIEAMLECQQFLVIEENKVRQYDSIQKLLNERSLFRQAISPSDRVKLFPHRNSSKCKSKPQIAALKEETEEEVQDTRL
T4 sequence (Q7ZJM1 whole entry): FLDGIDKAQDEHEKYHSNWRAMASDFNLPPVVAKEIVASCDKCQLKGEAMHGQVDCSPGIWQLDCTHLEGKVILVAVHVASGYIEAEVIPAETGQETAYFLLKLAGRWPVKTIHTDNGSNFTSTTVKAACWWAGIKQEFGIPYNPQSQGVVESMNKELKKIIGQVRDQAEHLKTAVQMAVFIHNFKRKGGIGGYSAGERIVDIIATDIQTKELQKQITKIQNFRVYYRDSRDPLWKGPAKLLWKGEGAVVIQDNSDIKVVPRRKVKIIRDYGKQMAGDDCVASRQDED
Sequence of 4-aminobutyrate aminotransferase, mitochondrial (P80404 whole entry): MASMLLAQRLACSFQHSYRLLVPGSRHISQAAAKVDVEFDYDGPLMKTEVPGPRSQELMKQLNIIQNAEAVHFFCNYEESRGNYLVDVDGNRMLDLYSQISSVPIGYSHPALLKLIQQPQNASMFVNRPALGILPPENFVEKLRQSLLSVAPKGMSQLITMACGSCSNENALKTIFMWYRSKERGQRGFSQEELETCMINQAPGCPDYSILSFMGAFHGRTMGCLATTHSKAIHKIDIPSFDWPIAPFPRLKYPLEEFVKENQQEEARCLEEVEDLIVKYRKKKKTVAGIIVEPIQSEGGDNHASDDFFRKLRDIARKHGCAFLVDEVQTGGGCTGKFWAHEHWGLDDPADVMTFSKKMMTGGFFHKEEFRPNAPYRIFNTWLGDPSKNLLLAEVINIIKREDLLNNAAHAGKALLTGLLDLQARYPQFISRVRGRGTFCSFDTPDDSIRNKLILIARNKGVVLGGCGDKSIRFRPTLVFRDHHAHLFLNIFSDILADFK

## Cc1ccc(-c2oc3ccc(Cl)cc3c(=O)c2O)c(OC(C)C)c1
Adenosine receptor A3
  Ki: 0.56 µM

## O=c1cc(-c2ccc(O)c(O)c2)oc2cc(O)cc(O)c12 [LUTEOLIN]
Homo sapiens
  inhibition: 36%
[1]
  Ki: 2.9 µM
[2]
  IC50: 99 µM
LNCaP
  IC50: 5 µM

## O=c1cc(-c2cccc([N+](=O)[O-])c2)oc2ccc(Br)cc12
[3]
  Ki: 0.0015 µM

## Cc1ccc2oc(-c3cc(Br)ccc3O)cc(=O)c2c1
[3]
  Ki: 0.0009 µM

## O=c1cc(-c2cccc([N+](=O)[O-])c2)oc2ccc([N+](=O)[O-])cc12
[3]
  Ki: 0.0015 µM

## O=c1cc(-c2ccc(OCc3ccc(Cl)nc3)cc2)oc2cc(OCc3ccc(Cl)nc3)ccc12
[4]
  IC50: 36.5 µM

## COc1cc2oc(-c3ccc(CN4CCCC4)cc3)cc(=O)c2cc1OC
Acetylcholinesterase
  IC50: 0.034 µM

## O=c1cc(-c2ccc(Oc3c(O)cc(O)c4c(=O)cc(-c5ccc(O)cc5)oc34)cc2)oc2cc(O)cc(O)c12 [LANAROFLAVONE]
Plasmodium falciparum
  IC50: 0.48 µM

## O=c1cc(-c2ccc(OCCOCCN(CCOCCOc3ccc(-c4cc(=O)c5ccccc5o4)cc3)Cc3ccncc3)cc2)oc2ccccc12
Leishmania
  IC50: 0.13 µM

## O=c1cc(-c2ccc(CN3CCCCC3)cc2)oc2ccccc12
Acetylcholinesterase
  IC50: 0.055 µM

## O=c1cc(-c2ccc(O)cc2)oc2cc(O)cc(O)c12 [APIGENIN]
[1]
  Ki: 0.52 µM
[5]
  Ki: 81 µM
[6]
  EC50: 9 µM

## O=c1cc(-c2ccccc2)oc2cc(O)c(O)c(O)c12 [BAICALEIN]
[7]
  IC50: 12800 µM
[2]
  IC50: 93 µM
[8]
  IC50: 52 µM

## O=c1cc(-c2ccc(O)cc2)oc2cc(O)c(O)c(O)c12 [SCUTELLAREIN]
[9]
  IC50: 7200 µM

## O=c1cc(-c2ccc(O)c(O)c2)oc2cc(O[C@@H]3O[C@H](CO)[C@@H](O)[C@H](O)[C@H]3OS(=O)(=O)O)cc(O)c12
[10]
  IC50: 400 µM
[11]
  IC50: 2100 µM

## COc1cc([C@H]2Oc3cc(-c4cc(=O)c5ccccc5o4)ccc3O[C@@H]2CO)ccc1O
Staphylococcus aureus
  MIC: 0.08 µg/mL (≈ 0.185 µM)

## COc1cccc2oc(-c3ccc(F)cc3)cc(=O)c12
Rattus norvegicus
  ED50: 5.5 mg/kg

## O=C1c2c(O)cc(O)cc2O[C@H](c2ccc(O)cc2)[C@H]1[C@@H]1C(=O)c2c(O)cc(O)cc2O[C@H]1c1ccc(O)cc1
Plasmodium falciparum
  IC50: 7.3 µM

## COc1c(OC)c(OC)c2c(=O)c(OC)c(-c3ccc4c(c3)OCO4)oc2c1OC
[12]
  Ki: 76.5 µM

## N=C(NC1CCCCC1)c1ccc2nc(-c3ccc4oc(-c5ccccc5)cc(=O)c4c3)[nH]c2c1
Staphylococcus aureus
  MIC: 1.56 µg/mL (≈ 3.37 µM)
